Source: patent US9926315B2, “Triazolopyridine compounds and methods for the treatment of cystic fibrosis” (Flatley Discovery Lab, LLC, priority 2014, dated 2018)

Target: T1, human ΔF508-CFTR (Homo sapiens, UniProt P13569, DEL508-508)
T1 construct: expressed in transfected cells
Assay: CFTR-YFP High Throughput Assay (HTS YFP flux assay, corrector / potentiator protocols)
Format: cell-based
Settings: FRT cells stably expressing human ΔF508-CFTR and YFP-H148Q/I152L; for Emax: normalized to positive control, read-out: Emax (% Efficacy, EMax normalized to the positive control)
Experimental: Assays for Detecting and Measuring the Effect of Compounds on dF508-CFTR Channels CFRT-YFP High Throughput Assay: Corrector Assay:
The following protocol is designed to selectively screen small molecule compounds for F508del CFTR corrector activities in the HTS YFP flux assay. In this protocol, the cells are incubated with testing compounds for 24 hours, washed with PBS, stimulated with forskolin and a standard potentiator, and read on a 384-well HTS plate reader, such as the Hamamatsu FDDD-6000.
(§1) YFP fluorescence intensity is acquired at high speed before and after iodide buffer is injected to the assay cells. Iodide enters the cells via active CFTR channels in the plasma membrane, and quenches the YFP fluorescence. The rate of fluorescence quenching is proportionally related to the total CFTR activities in the cell membrane. dF508-CFTR corrector accelerates YFP quenching by increasing the number of CFTR molecules in the testing cell plasma membrane.
This method was initially developed for bench top plate readers (Galietta, 2001), and was adapted to the HTS format (Sui, 2010).
Fisher Rat Thyroid (FRT) cells stably expressing both human ΔF508-CFTR and a halide-sensitive yellow fluorescent protein (YFP-H148Q/I152L 25, 22) (Galietta, 2001) were cultured on plastic surface in Coon's modified Ham's F12 medium supplemented with FBS 10%, L-glutamine 2 mM, penicillin 100 U/mL, and streptomycin 100 μg/mL. G418 (0.75-1.0 mg/mL) and zeocin (3.2 μg/mL) were used for selection of FRT cells expressing ΔF508-CFTR and YFP. For primary screening, FRT cells were plated into 384-well black wall, transparent bottom microtiter plates (Costar; Corning Inc.) at a cell density of 20, 000-40, 000 per well. Test compound was applied to the cells at varying concentrations ranging from 2 nM-[…] in either a 2-fold or 3-fold dilution series. Cells were incubated in a cell culture incubator at 37° C. with 5% CO2 for 24-26 h. Assay plates were washed with DPBS media (Thermo, cat#SH30028.02) to remove unbound cells and compound. Stimulation media (25 μL) containing 20 μM Forskolin & 30 μM P3 [6-(Ethyl-phenyl-sulfonyl)-4-oxo-1, 4-dihydro-quinoline-3-carboxylic acid 2-methoxy-benzylamide] in Hams F-12 coon's modified media was added to the plate wells and incubated at room temperature for 60-120 min. 25 μL of HEPES-PBS-I buffer (10 mM HEPES, 1 mM MgCl2, 3 mM KCl, 1 mM CaCl2, 150 mM NaI) was then added and fluorescence quench curves (Excitation 500 nm/Emission 540 nm; exposure 136 ms) were immediately recorded on an FDSS-6000 plate reader (Hamamatsu). Quench rates were derived from least squares fitting of the data (Sui, 2010).
The following protocol is designed to selectively screen small molecule compounds for F508del CFTR potentiator activities in the HTS YFP flux assay. In this protocol, the cells are incubated at 27° C. for 24 hours with homogeneously boosted dF508-CFTR expression in the cell membrane by the low temperature, washed with PBS, stimulated with forskolin, and read on a 384-well HTS plate reader, such as the Hamamatsu […].
as §1, with “dF508del-CFTR potentiators accelerate” for “dF508-CFTR corrector accelerates”, “increasing” for “increasing the number of”, “activities” for “molecules”
Fisher Rat Thyroid (FRT) cells stably expressing both human ΔF508-CFTR and a halide-sensitive yellow fluorescent protein (YFP-H148Q/I152L 25, 22) (Galietta, 2001) were cultured on plastic surface in Coon's modified Ham's F12 medium supplemented with FBS 10%, L-glutamine 2 mM, penicillin 100 U/mL, and streptomycin 100 μg/mL. G418 (0.75-1.0 mg/mL) and zeocin (3.2 μg/mL) were used for selection of FRT cells expressing ΔF508-CFTR and YFP. […]

T1 sequence (P13569 with tags, fused parts or gaps DEL508-508): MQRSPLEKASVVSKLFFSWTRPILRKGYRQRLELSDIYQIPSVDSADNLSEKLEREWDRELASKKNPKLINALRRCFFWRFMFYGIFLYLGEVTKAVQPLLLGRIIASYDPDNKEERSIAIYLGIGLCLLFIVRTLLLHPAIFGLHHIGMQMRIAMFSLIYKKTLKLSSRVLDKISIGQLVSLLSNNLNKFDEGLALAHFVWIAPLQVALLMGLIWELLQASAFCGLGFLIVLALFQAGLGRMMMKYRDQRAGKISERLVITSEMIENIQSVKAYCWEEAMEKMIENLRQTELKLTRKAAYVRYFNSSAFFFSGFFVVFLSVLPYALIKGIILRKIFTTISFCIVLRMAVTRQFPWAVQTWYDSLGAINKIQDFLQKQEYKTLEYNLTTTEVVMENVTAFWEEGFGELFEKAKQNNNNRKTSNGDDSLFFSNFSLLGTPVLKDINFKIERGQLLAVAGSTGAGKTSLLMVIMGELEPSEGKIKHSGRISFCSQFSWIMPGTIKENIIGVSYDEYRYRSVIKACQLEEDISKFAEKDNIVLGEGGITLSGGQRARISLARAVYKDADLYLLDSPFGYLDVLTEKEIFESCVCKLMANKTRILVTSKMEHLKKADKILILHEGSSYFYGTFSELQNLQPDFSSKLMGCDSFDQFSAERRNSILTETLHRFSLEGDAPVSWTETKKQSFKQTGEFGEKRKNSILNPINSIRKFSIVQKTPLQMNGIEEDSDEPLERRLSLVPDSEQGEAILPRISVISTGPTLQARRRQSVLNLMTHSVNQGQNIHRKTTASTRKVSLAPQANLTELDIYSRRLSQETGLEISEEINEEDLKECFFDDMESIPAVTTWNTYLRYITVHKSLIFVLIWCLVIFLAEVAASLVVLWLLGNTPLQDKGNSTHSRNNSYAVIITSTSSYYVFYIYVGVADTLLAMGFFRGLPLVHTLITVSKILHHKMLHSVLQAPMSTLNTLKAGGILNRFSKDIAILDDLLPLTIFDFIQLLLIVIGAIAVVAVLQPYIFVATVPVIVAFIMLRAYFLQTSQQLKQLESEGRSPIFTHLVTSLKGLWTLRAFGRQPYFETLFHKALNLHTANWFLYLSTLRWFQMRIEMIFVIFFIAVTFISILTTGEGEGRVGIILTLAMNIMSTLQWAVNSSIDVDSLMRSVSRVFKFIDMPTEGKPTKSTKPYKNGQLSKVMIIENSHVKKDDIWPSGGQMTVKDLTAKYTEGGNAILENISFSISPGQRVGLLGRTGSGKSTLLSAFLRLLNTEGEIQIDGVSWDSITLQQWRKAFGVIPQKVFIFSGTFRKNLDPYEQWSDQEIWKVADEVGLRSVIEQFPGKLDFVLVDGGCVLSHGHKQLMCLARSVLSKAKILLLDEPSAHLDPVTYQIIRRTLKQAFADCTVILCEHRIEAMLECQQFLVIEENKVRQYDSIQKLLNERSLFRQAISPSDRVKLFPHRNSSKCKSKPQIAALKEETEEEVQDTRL

EC50 | Emax | Structure (SMILES)
< 1 µM | > 80% | CCN(CC)S(=O)(=O)c1ccc2nnc(NCc3ccccc3)n2c1 [Example 1, 3-(Benzylamino)-N,N-diethyl-[1,2,4]triazolo[4,3-a]pyridine-6-sulfonamide]
< 1 µM | > 80% | CCN(CC)S(=O)(=O)c1ccc2nnc(NC3CCCc4ccccc43)n2c1 (centres unmarked) [Example 2]
< 1 µM | 40 to 80% | CCN(CC)S(=O)(=O)c1ccc2nnc(N(C)Cc3ccccc3)n2c1 [Example 3]
< 1 µM | > 80% | CCN(CC)S(=O)(=O)c1ccc2nnc(NC3Cc4ccccc4C3)n2c1 [Example 4]
< 1 µM | > 80% | CCN(CC)S(=O)(=O)c1ccc2nnc(NCc3ccc(-c4ccccc4)cc3)n2c1 [Example 5]
1 to 10 µM | 40 to 80% | CCN(CC)S(=O)(=O)c1ccc2nnc(N3CCN(Cc4ccccc4)CC3)n2c1 [Example 6]
< 1 µM | 40 to 80% | CCN(CC)S(=O)(=O)c1ccc2nnc(NCC(C)(C)C)n2c1 [Example 7]
< 1 µM | > 80% | CCN(CC)S(=O)(=O)c1ccc2nnc(NCC3CC3)n2c1 [Example 8]
< 1 µM | > 80% | CCN(CC)S(=O)(=O)c1ccc2nnc(NCc3ccc(C)cc3)n2c1 [Example 9]
< 1 µM | > 80% | CCN(CC)S(=O)(=O)c1ccc2nnc(NCc3cccc(C)c3)n2c1 [Example 10]
< 1 µM | > 80% | CCN(CC)S(=O)(=O)c1ccc2nnc(NC3CCCCC3)n2c1 [Example 11]
1 to 10 µM | 40 to 80% | CCN(CC)S(=O)(=O)c1ccc2nnc(NC(=O)c3ccccc3)n2c1 [Example 12]
< 1 µM | 40 to 80% | CCN(CC)S(=O)(=O)c1ccc2nnc(NCc3ccccc3C)n2c1 [Example 13]
> 10 µM | 40 to 80% | CCN(CC)S(=O)(=O)c1ccc2nnc(NCC3CCCO3)n2c1 (centres unmarked) [Example 14]
> 10 µM | 40 to 80% | CCN(CC)S(=O)(=O)c1ccc2nnc(NCc3cccnc3)n2c1 [Example 15]
< 1 µM | 40 to 80% | CCN(CC)S(=O)(=O)c1ccc2nnc(NCc3ccc(OC)cc3)n2c1 [Example 16]
< 1 µM | > 80% | CCN(CC)S(=O)(=O)c1ccc2nnc(NCC(C)C)n2c1 [Example 17]
1 to 10 µM | 40 to 80% | CCN(CC)S(=O)(=O)c1ccc2nnc(NCC(C)(C)O)n2c1 [Example 18]
< 1 µM | > 80% | CCN(CC)S(=O)(=O)c1ccc2nnc(NCCC(C)C)n2c1 [Example 19]
< 1 µM | > 80% | CCN(CC)S(=O)(=O)c1ccc2nnc(N[C@H](C)c3ccccc3)n2c1 [Example 20]
< 1 µM | > 80% | CCN(CC)S(=O)(=O)c1ccc2nnc(N[C@@H](C)c3ccccc3)n2c1 [Example 21]
< 1 µM | 40 to 80% | CCN(CC)S(=O)(=O)c1ccc2nnc(NCC(=O)Nc3ccc(C)c(C)c3)n2c1 [Example 22]
> 10 µM | > 80% | CCN(CC)S(=O)(=O)c1ccc2nnc(NC[C@H]3CCCO3)n2c1 [Example 23]
1 to 10 µM | > 80% | CCN(CC)S(=O)(=O)c1ccc2nnc(NCC(O)COC)n2c1 (centres unmarked) [Example 24]
< 1 µM | > 80% | CCN(CC)S(=O)(=O)c1ccc2nnc(NCCc3ccccc3)n2c1 [Example 25]
< 1 µM | > 80% | CCN(CC)S(=O)(=O)c1ccc2nnc(NC3CCCC3)n2c1 [Example 26]

EC50 | Emax | Structure (SMILES)
< 1 µM | > 80% | CCN(CC)S(=O)(=O)c1ccc2nnc(NC(C)c3ccc(C)cc3)n2c1 (centres unmarked) [Example 27]
< 1 µM | > 80% | CCN(CC)S(=O)(=O)c1ccc2nnc(NC(C)c3ccc(OC)cc3)n2c1 (centres unmarked) [Example 28]
< 1 µM | > 80% | CCC(Nc1nnc2ccc(S(=O)(=O)N(CC)CC)cn12)c1ccccc1 (centres unmarked) [Example 29]
< 1 µM | > 80% | CCN(CC)S(=O)(=O)c1ccc2nnc(NC3CCc4ccccc43)n2c1 (centres unmarked) [Example 30]
1 to 10 µM | 40 to 80% | CCN(CC)S(=O)(=O)c1ccc2nnc(NCC(C)(C)OC)n2c1 [Example 31]
1 to 10 µM | 40 to 80% | CCN(CC)S(=O)(=O)c1ccc2nnc(NC3CCc4ccccc4C3)n2c1 (centres unmarked) [Example 32]
< 1 µM | > 80% | CCN(CC)S(=O)(=O)c1ccc2nnc(N[C@@H]3C[C@H]4CC[C@@H]3C4)n2c1 [Example 33]
< 1 µM | > 80% | CCN(CC)S(=O)(=O)c1ccc2nnc(N[C@H](C)C3CCCCC3)n2c1 [Example 34]
< 1 µM | > 80% | CCN(CC)S(=O)(=O)c1ccc2nnc(N[C@H](C)c3ccc(C)cc3)n2c1 [Example 35]
< 1 µM | > 80% | CCN(CC)S(=O)(=O)c1ccc2nnc(NCc3ccc(OC(C)C)cc3)n2c1 [Example 36]
< 1 µM | > 80% | CCN(CC)S(=O)(=O)c1ccc2nnc(NCc3ccc(N(C)C)cc3)n2c1 [Example 37]
< 1 µM | > 80% | CCN(CC)S(=O)(=O)c1ccc2nnc(N[C@@H](C)c3ccc(C)cc3)n2c1 [Example 38]
< 1 µM | > 80% | CCN(CC)S(=O)(=O)c1ccc2nnc(NCc3ccc(C)c(C)c3)n2c1 [Example 39]
< 1 µM | > 80% | CCN(CC)S(=O)(=O)c1ccc2nnc(NCc3ccc4c(c3)CCO4)n2c1 [Example 40]
< 1 µM | > 80% | CCN(CC)S(=O)(=O)c1ccc2nnc(N[C@H](C)c3ccc(F)cc3)n2c1 [Example 41]
< 1 µM | > 80% | CCN(CC)S(=O)(=O)c1ccc2nnc(NC(C)CC(C)C)n2c1 (centres unmarked) [Example 42]
< 1 µM | > 80% | CCN(CC)S(=O)(=O)c1ccc2nnc(NC(C)C(C)C)n2c1 (centres unmarked) [Example 43]
< 1 µM | > 80% | CCN(CC)S(=O)(=O)c1ccc2nnc(NC3CCOc4ccccc43)n2c1 (centres unmarked) [Example 44]
< 1 µM | > 80% | CCN(CC)S(=O)(=O)c1ccc2nnc(NCCC(C)(C)C)n2c1 [Example 45]
< 1 µM | 40 to 80% | CCN(CC)S(=O)(=O)c1ccc2nnc(N[C@@H]3CCc4ccccc43)n2c1 [Example 46]
< 1 µM | 40 to 80% | CC(C)N(C(C)C)S(=O)(=O)c1ccc2nnc(N[C@H](C)c3ccccc3)n2c1 [Example 47]
< 1 µM | > 80% | CCN(CC)S(=O)(=O)c1ccc2nnc(NCc3ccc(C(F)(F)F)cc3)n2c1 [Example 48]
< 1 µM | > 80% | CCN(CC)S(=O)(=O)c1ccc2nnc(NCc3ccc(F)cc3)n2c1 [Example 49]
< 1 µM | > 80% | CCN(CC)S(=O)(=O)c1ccc2nnc(NCC3CCOCC3)n2c1 [Example 50]
< 1 µM | > 80% | CCN(CC)S(=O)(=O)c1ccc2nnc(N[C@@H](c3ccccc3)C(C)C)n2c1 [Example 51]
1 to 10 µM | > 80% | CCN(CC)S(=O)(=O)c1ccc2nnc(NCC3CCCCC3)n2c1 [Example 52]
